Assay results: US8507528B2, “2-alkyl-indazole compounds for the treatment of certain cns-related disorders” (Aziende Chimiche Riunite Angelini Francesco A.C.R.A.F. …, priority 2006, dated 2013)
pKi: −log10 of the molar value. Where a name gives a salt, the structure may show the parent alone. Read-outs that look alike come from different tables or passages of the source.

Key:
[1] = molecular target: T1, human serotonin 5-HT2A receptor (Homo sapiens, UniProt P28223); assay: Test B: binding to the human serotonin 5-HT2A receptor; conditions: human recombinant cells, six concentrations; read-out: (h)5-HT2a (pKi) (converted)
T1 construct: expressed in transfected cells
Excerpt: (§1) These tests measured the percentage inhibition induced by the compounds of formula (I) according to the present invention at six different concentrations, from which the pKi values of the compounds in relation to the individual receptors were obtained.
Binding to the human serotonin 5-HT2A receptor was effected by the standard methodology described in Bonhaus D. W., Bach C., De Souza A., Salazar F. H., Matsuoka B. D., Zuppan P., Chan H. W., Eglen R. M. (1995) “The pharmacology and distribution of human 5-hydroxytryptamine2B (5-HT2B) receptor gene products: comparison with 5-HT2A and 5-HT2C receptors.” Br. J. Pharmacol. 115(4): 622-628; and Saucier C., Albert P. R. (1997) “Identification of an endogenous 5-hydroxytryptamine2A receptor in NIH-3T3 cells: agonist-induced down-regulation involves decreases in receptor RNA and number.” J. Neurochem. 68(5): 1998-2011. The test compounds were tested in duplicate at a single concentration of 1 μM and then at six concentrations to find the pKi values of the individual compounds.

[2] = molecular target: T2, serotonin 5-HT2C receptor (Homo sapiens, UniProt P28335); assay: Test B: binding to the serotonin 5-HT2C receptor; conditions: human recombinant cells (CHO-K1), six concentrations; read-out: (h)5-HT2c (pKi) (converted)
T2 construct: expressed in transfected cells; host or cells: CHO-K1
T2 sequence (P28335 33-458): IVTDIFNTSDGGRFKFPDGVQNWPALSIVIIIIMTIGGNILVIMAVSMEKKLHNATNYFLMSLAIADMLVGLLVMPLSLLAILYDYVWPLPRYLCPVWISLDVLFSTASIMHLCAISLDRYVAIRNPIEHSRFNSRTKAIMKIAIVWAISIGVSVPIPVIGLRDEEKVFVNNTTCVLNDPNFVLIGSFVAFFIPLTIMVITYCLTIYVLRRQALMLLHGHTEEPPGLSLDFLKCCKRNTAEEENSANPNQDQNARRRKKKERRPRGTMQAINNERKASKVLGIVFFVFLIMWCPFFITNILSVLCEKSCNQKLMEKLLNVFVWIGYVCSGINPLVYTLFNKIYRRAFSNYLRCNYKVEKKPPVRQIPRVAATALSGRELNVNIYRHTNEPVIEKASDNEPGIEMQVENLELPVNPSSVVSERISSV
Excerpt: as §1
Binding to the serotonin 5-HT2C receptor was effected using the standard methodology described in: Wolf W. A. and Schutz J. S. (1997) “The serotonin 5-HT2C receptor is a prominent serotonin receptor in basal ganglia: evidence from functional studies on serotonin-mediated phosphoinositide hydrolysis.” J. Neurochem. 69: 1449-1458. CHO-K1 recombinant cells for expression of the human enzyme were used as starting material, and SB242084 as reference compound. The test compounds were tested in duplicate at a single concentration of 1 μM and then at six concentrations to find the pKi values of the individual compounds.

[3] = molecular target: T3, rat 5-HT2A serotonin receptor (Rattus norvegicus, UniProt P14842); assay: biochemical
Description: (§2) The non-specific binding was measured in the presence of 10 μM methysergide. The assay was conducted in Tris-HCl 50 mM buffer (pH 7.4 at 37° C.), with incubation for 2 hours at 37° C. The test compounds were dissolved in DMSO, then diluted in buffer (final DMSO concentration 0.01%) and plated on 96-well plates. Methysergide and/or ketanserin were used as reference compounds.
(§3) Binding is initiated by addition of 200 μl of homogenate (450 μg/ml protein content); after incubation, the membranes were filtered on glass-fibre filters (GF/B) (Unifilter, Packard) treated with 0.3% polyethyleneimine. Then the filters were washed with buffer solution and stove-dried for 30 minutes at 45° C. The scintillation liquid was added to each well, and 10 hours later the radioactivity was measured for 1 minute using a TopCount (Packard). The test compounds were tested in duplicate at 8 concentrations (from 10^-12 to 10^-5 M).
(§4) The IC50 values for each compound were calculated using non-linear regression analysis (GraphPad PRISM software) and the inhibition constants Ki were determined using the equation described by Cheng Y. and Prussof W. H. (1973) “Relationship between the inhibition constant (Ki) and the concentration of inhibitor which causes 50 percent inhibition (150) of an enzyme reaction.” Biochem. Pharmacol. 22: 3099-3108.

[4] = molecular target: T3, rat 5-HT2A serotonin receptor
Description: as §2, §3, §4

T1 sequence (P28223 whole entry): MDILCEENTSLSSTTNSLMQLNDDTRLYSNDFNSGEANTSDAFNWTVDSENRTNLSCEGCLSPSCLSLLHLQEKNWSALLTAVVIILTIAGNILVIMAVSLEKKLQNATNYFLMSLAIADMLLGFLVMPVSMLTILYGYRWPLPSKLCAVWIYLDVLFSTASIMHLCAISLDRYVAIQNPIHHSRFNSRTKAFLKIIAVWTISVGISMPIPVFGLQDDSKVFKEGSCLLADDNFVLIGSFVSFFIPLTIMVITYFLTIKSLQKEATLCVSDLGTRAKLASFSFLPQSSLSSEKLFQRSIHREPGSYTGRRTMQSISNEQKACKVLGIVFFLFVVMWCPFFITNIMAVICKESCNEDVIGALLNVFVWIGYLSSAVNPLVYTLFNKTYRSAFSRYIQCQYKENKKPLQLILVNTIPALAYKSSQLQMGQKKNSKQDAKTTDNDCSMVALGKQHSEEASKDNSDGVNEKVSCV
T3 sequence (P14842 whole entry): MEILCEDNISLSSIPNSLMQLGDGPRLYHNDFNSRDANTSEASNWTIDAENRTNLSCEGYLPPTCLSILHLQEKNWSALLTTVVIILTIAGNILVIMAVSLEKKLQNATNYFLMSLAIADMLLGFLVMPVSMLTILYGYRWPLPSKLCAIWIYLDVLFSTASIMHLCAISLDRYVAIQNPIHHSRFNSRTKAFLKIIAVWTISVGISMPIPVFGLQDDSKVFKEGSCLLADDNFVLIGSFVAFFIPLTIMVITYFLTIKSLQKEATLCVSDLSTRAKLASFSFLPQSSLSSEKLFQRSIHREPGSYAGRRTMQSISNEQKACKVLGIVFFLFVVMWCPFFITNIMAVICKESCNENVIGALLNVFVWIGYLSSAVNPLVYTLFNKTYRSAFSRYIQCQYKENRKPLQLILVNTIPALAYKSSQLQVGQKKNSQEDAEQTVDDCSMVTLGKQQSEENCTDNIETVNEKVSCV

`Cl.Cn1nc2ccccc2c1C(=O)NC1CCN(CCc2ccc(F)cc2)CC1` showed a melting point of 224 to 228 °C.

With `Cn1nc2ccccc2c1C(=O)NCC1CCN(CCc2ccccc2)CC1` [Compound 1, 2-Methyl-N-{[1-(2-phenylethyl)piperidin-4-yl]methyl}-2H-indazole-3-carboxamide hydrochloride hydrate] the Ki [1] was 0.00263 µM, the Ki [2] was 0.0891 µM and the pKi [3] was 7.49.

Compound `Cn1nc2ccccc2c1C(=O)NCC1CCN(CCc2ccc(O)cc2)CC1` [Compound 3, N3-({1-[2-(4-Hydroxyphenyl)ethyl]hexahydro-4-pyridinyl}methyl-2-methyl-2H-3-indazolecarboxamide hydrochloride hydrate] has a Ki [1] of 0.00209 µM, a Ki [2] of 0.148 µM and a pKi [3] of 7.32.

With `COc1ccc2nn(C)c(C(=O)NCC3CCN(CCc4ccc(O)cc4)CC3)c2c1` [Compound 4, N-({1-[2-(4-Hydroxyphenyl)ethyl]piperidin-4-yl}methyl)-5-methoxy-2-methyl-2H-indazole-3-carboxamide] the melting point was 218 to 219 °C (dec.) and the pKi [3] was 7.32.

In the case of `COc1ccc(CCN2CCC(CNC(=O)c3c4ccccc4nn3C)CC2)cc1.Cl` [Compound 5, N-({1-[2-(4-Methoxyphenyl)ethyl]piperidin-4-yl}methyl)-2-methyl-2H-indazole-3-carboxamide hydrochloride], the melting point was 80 °C (dec.) and the pKi [3] was 5.80.

Work on `COCCn1nc2ccccc2c1C(=O)NCC1CCN(CCc2ccc(F)cc2)CC1.Cl` [Compound 7, N-({1-[2-(4-Fluorophenyl)ethyl]piperidin-4-yl}methyl)-2-(2-methoxyethyl)-2H-indazole-3-carboxamide hydrochloride] yielded a melting point of 193 to 194 °C and a pKi [3] of 7.04.

Compound `Cl.Cn1nc2ccccc2c1C(=O)NCC1CCN(CCc2ccc(F)cc2)CC1` [Compound 8, N-({1-[2-(4-Fluorophenyl)ethyl]piperidin-4-yl}methyl)-2-methyl-2H-indazole-3-carboxamide hydrochloride] has a Ki [1] of 0.00162 µM, a Ki [2] of 0.0537 µM and a melting point of 208 to 209 °C. The pKi [3] was 7.80.

`Cn1nc2ccccc2c1C(=O)N1CCC(CNCCc2ccc(F)cc2F)CC1` [Compound 9, 2-(2,4-Difluorophenyl)-N-({1-[(2-methyl-2H-indazole-3-yl)carbonyl]piperidin-4-yl}methyl)ethanamine hydrochloride] gave a pKi [3] of 6.20.

`Cl.Cn1nc2ccccc2c1C(=O)N1CCC(CNCCc2ccc(F)cc2)CC1` [Compound 10, 2-(4-Fluorophenyl)-N-({1-[(2-methyl-2H-indazol-3-yl)carbonyl)piperidin-4-yl}methyl]ethanamine hydrochloride] showed a melting point of 198 to 199 °C and a pKi [3] of 6.58.

`Cn1nc2ccccc2c1C(=O)NC1CCN(CCc2ccc(F)cc2)C1` (stereo not shown) [Compound 15, N-{1-[2-(4-fluorophenyl)ethyl]pyrrolidin-3-yl}-2-methyl-2H-indazole-3-carboxamide] showed a melting point of 117 to 119 °C.

`Cn1nc2ccccc2c1C(=O)NCC1CCN(CCc2ccc(C(F)(F)F)cc2)CC1` [Compound 17, 2-methyl-N-[(1-{2-[4-(trifluoromethyl)phenyl]ethyl}piperidin-4-yl)methyl]-2H-indazole-3-carboxamide] gave a melting point of 174 to 176 °C.

With `Cn1nc2ccccc2c1C(=O)NC1CCN(CCc2ccccc2F)CC1` [Compound 18, N-{1-[2-(2-fluorophenyl)ethyl)piperidin-4-yl}-2-methyl-2H-indazole-3-carboxamide] the melting point was 164 to 166 °C.

For `Cn1nc2ccccc2c1C(=O)NCCCN1CCC(c2ccc(F)cc2)CC1` [Compound 20, N-{3-[4-(4-fluorophenyl)piperidin-1-yl]propyl}-2-methyl-2H-indazole-3-carboxamide], the melting point was 136 to 140 °C.

With `Cn1nc2ccccc2c1C(=O)NC1CCN(Cc2ccccc2)CC1` [Compound 21, N-(1-benzylpiperidin-4-yl)-2-methyl-2H-indazole-3-carboxamide] the melting point was 167 to 169 °C.

In the case of `Cn1nc2ccccc2c1C(=O)NC1CCN(CCCc2ccc(F)cc2)CC1` [Compound 22, N-{1-[3-(4-fluorophenyl)propyl]piperidin-4-yl}-2-methyl-2H-indazole-3-carboxamide], the melting point was 162 to 165 °C.

For `Cn1nc2ccccc2c1C(=O)NCC1CCN(CCc2ccc(F)cc2F)CC1` [Compound 23, N-({1-[2-(2,4-difluorophenyl)ethyl]piperidin-4-yl}methyl)-2-methyl-2H-indazole-3-carboxamide], the melting point was 122 to 126 °C.

“N,2-Dimethyl-N-{[1-(2-phenylethyl)piperidin-4-yl]methyl}-2H-indazole-3-carboxamide hydrochloride hemihydrate [Compound 2]” showed a pKi [4] of 6.09.
